# How the values were obtained:
# Format in all cases: in vivo, mouse
# leptine = experiment: Plasma leptine rates after administration of NaCl or MDMA; details: single administration MDMA 10 mg/kg, wild or mutant mice; p=0.95
# Protocol: The data represents the average±the standard deviation from the average of the leptine rates of the plasma expressed in ng/mL after the administration of NaCl (0.9%) or of MDMA (10 mg/kg) in the wild (+/+) or the disabled (−/−) mice for the gene coding for the 5-HT4 receptor, aged six to 10 months on the average. **p<0.01 significant effect of the genotype after a variance analysis (ANOVA) followed by an F test of Scheffé.
# 5-HT4 receptor [1] = experiment: Ingestion of food after 24 h food deprivation and i.p. drug injection (protocol of Lucas et al., 1998); details: for diminution of ingestion of food vs NaCl-treated mice of same genotype / effect on ingestion of food vs NaCl-treated mice of same genotype: MDMA 10 mg/kg, RS 39604 0.5 mg/kg i.p.; for effect on ingestion of food vs NaCl-treated mice of same genotype: 3 h after administration
# Protocol: Each drug used to treat the wild mice disabled for the gene coding for the 5-HT4 receptor was diluted extemporaneously in a saline solution of NaCl (0.9%) and injected in a systemic manner (i.p.). The injection volume of each treatment was 200 μL for 30 g. The wild mice or those disabled for the 5-HT4 receptor (n=35) received the following treatments: NaCl, MDMA (or ecstasy or 3,4-N-methylene dioxymethamphetamine, SIGMA, 10 mg/kg), RS 39604, […]/MDMA.
# (§1) The MDMA (10 mg/kg, Sigma, user license 9900431 S, V. Compan) and RS 39604 (0.5 mg/kg), antagonist of the 5-HT4 receptor, were administered by themselves or in a combined treatment to the wild mice or those deprived of the 5-HT4 receptor (n=12-17 by genotype and pharmacological products).
# Ingestion of food by the wild mice and the mice disabled for the gene coding for the 5-HT4 receptor was evaluated in accordance with the test protocol described by Lucas et al., 1998. The different mice were isolated for a habituation period of three days in the presence of food and water supplied ad libitum during which the weights of the mice and of the food consumed were measured daily at the same hour. On the fourth day the mice were deprived of their food for 24 hours. The drugs were injected such as NaCl after the food deprivation period to determine the effect of the different treatments on ingestion of food. Food was reintroduced into each cage after an interval of 10 min for the other treatments. Three successive weighings of the food were then carried out 30 min, 1 h and 3 h after the reintroduction of the food.
# 5-HT4 receptor [2] = experiment: Constraint stress (forced immobilization 110 min): ingestion of food and weight; details: RS 39604 1 mg/kg, not shown
# Protocol: Each of the tests was divided into three phases: A period of habituation (7 days), the day of the constraint stress (immobilization for 110 min) and a recovery stage (10 days). The mice were divided into a control group and a constraint group. On the stress day the wild mice disabled for the gene coding for the 5-HT4 receptor received an injection of NaCl […], 1 mg/kg of RS 39604, antagonist of the 5-HT4 receptor. […] Ingestion of food was then measured 2 h 30 min, 3 and 5 h and each day during the recovery period.
# 5-HT4 receptor [3] = experiment: Taking of food in mice nourished ad libitum (dose selection for RS 39604); details: 0.5 mg/kg, not illustrated
# Protocol: as §1
Compound,rates of leptine in plasma (leptine),"diminution of ingestion of food vs NaCl-treated mice of same genotype (5-HT4 receptor [1]; mice lacking the 5-HT4 receptor (−/−), 30 min after administration) [%]","diminution of ingestion of food vs NaCl-treated mice of same genotype (5-HT4 receptor [1]; mice lacking the 5-HT4 receptor (−/−), 1 h after administration) [%]",effect on ingestion of food vs NaCl-treated mice of same genotype (5-HT4 receptor [1]; mice lacking the 5-HT4 receptor (−/−)),"diminution of ingestion of food vs NaCl-treated mice of same genotype (5-HT4 receptor [1]; wild mice (+/+), 30 min after administration, 24 h food deprivation) [%]","diminution of ingestion of food vs NaCl-treated mice of same genotype (5-HT4 receptor [1]; wild mice (+/+), 1 h after administration, 24 h food deprivation) [%]","effect on ingestion of food vs NaCl-treated mice of same genotype (5-HT4 receptor [1]; wild mice (+/+), 24 h food deprivation)",ingestion of food after constraint stress preceded by injection (5-HT4 receptor [2]; wild female mice),weight losses after constraint stress vs NaCl-treated animals (5-HT4 receptor [2]; wild mice),taking of food vs mice treated with NaCl or other dosages (5-HT4 receptor [3]; mutant animals for the 5-HT4 receptors),taking of food vs mice treated with NaCl or other dosages (5-HT4 receptor [3]; nourished wild mice ad libitum),"effect of treatment alone on ingestion of food (statistical analysis of genotype, treatment, interaction) (5-HT4 receptor [1]; RS 39604 0.5 mg/kg i.p. alone, wild and mutant mice, 24 h food deprivation)"
"CNC(C)Cc1ccc2c(c1)OCO2 (stereo not drawn) [MDMA, 3,4-N-methylene dioxymethamphetamine]",does not modify the rates of leptine,−69.07,−68.49,no longer observed,−95.38,−88.56,absent,–,–,–,–,–
COc1cc(COc2cc(N)c(Cl)cc2C(=O)CCC2CCN(CCNS(C)(=O)=O)CC2)cc(OC)c1 [RS 39604],–,–,–,–,–,–,–,not modified,reduced the weight losses,without effect,increase of the taking of food,does not reveal significant
